# Results published in ChEMBL document CHEMBL4257222, “Use of small molecule inhibitors targeting eya tyrosine phosphatase” (2016).
# Active and inactive are the calls of the source. No cut-off for these calls is given here.
# Columns and labels:
# [1] = target: T1, Protein phosphatase EYA2 (Homo sapiens) (UniProt O00167); assay: Inhibition of Eya2 (unknown origin) expressed in human MCF10A cells assessed as reduction in cell migration; assay type: cell-based
# T1 sequence (whole entry): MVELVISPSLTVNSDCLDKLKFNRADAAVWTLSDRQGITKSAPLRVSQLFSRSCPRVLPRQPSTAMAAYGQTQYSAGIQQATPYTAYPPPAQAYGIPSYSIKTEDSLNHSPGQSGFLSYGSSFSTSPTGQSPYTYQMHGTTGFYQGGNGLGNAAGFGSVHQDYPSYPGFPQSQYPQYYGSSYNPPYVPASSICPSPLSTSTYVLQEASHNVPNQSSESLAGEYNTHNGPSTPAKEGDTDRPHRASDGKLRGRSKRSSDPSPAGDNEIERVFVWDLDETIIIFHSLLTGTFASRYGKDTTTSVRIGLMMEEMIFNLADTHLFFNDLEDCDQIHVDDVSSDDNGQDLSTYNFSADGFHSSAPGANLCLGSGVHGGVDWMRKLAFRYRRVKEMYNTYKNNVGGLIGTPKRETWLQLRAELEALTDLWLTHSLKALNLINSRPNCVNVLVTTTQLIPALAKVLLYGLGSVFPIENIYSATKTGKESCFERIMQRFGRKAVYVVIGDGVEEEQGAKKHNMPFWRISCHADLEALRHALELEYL
# [2] = test system: T2, Protein phosphatase EYA2 (Homo sapiens), O00167 [D250N]; assay: Inhibition of Eya2 D250N mutant (unknown origin) expressed in human MCF10A cells assessed as reduction in cell migration; assay type: cell-based; conditions: concentration not given here
# T2 sequence (whole entry): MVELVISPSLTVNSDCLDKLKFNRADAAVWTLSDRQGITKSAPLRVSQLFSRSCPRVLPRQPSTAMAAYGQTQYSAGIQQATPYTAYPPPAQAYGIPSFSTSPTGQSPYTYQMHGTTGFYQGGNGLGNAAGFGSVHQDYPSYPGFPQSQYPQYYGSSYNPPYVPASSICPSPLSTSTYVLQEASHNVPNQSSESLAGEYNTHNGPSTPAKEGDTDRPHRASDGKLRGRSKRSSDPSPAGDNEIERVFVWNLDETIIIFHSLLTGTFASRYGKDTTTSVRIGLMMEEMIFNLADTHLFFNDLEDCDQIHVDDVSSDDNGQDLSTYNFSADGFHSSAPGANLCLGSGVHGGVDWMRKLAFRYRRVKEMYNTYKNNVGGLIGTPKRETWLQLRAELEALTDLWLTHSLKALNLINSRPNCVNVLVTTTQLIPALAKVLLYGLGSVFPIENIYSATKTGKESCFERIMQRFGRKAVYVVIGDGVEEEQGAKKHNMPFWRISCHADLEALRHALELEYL
# MCF-10A = assay: Toxicity in human MCF10A cells expressing Eya2 (unknown origin) assessed as effect on cell proliferation of; assay type: cell-based
# HUVEC [3] = assay: Inhibition of cell motility of HUVEC; assay type: functional, cell-based; conditions: Homo sapiens
# HUVEC [4] = assay: Toxicity in HUVEC assessed as effect on cell proliferation by MTT assay; assay type: cell-based; conditions: human
# HUVEC [5] = assay: Inhibition of tubulogenesis of HUVEC grown on growth factor-reduced matrigel at 7.5 uM by inverted microscopy; assay type: functional, cell-based; conditions: Homo sapiens
# Aorta [6] = assay: Inhibition of endothelial cell migration in VEGF165-stimulated […] mouse aortic rings incubated in collagen matrix assessed as induction of shorter sprouts incubated for 10 days by aortic ring assay; assay type: functional, tissue-based
# Aorta [7] = assay: Inhibition of endothelial cell migration in VEGF165-stimulated […] mouse aortic rings incubated in collagen matrix assessed as reduction in microvascular density incubated for 10 days by aortic ring assay; assay type: functional, tissue-based
# Danio rerio [8] = species: Danio rerio; assay: Inhibition of angiogenesis in FLK1-GFP trangenic zebrafish model of angiogenesis assessed as induction of defects in developing vasculature measured after 24 hpf stage by fluorescence microscopy; assay type: functional, organism-based
# Danio rerio [9] = species: Danio rerio; assay: Inhibition of angiogenesis in FLK1-GFP trangenic zebrafish model of angiogenesis assessed as reduction in intersegmental vessel number and extension measured after 24 hpf stage by fluorescence microscopy; assay type: functional, organism-based
# Danio rerio [10] = species: Danio rerio; assay: Inhibition of angiogenesis in FLK1-GFP trangenic zebrafish model of angiogenesis assessed as effect on vasculature exposed to compound starting at later stage (20 hpf) by fluorescence microscopy; assay type: functional, organism-based
# Mus musculus [11] = species: Mus musculus; assay: Inhibition of proliferative retinopathy in mouse model of oxygen-induced retinopathy assessed as reduction in formation of neovascular tufts at 50 to 100 pmole injected at P12 and measured at P16; assay type: functional, organism-based
# Mus musculus [12] = species: Mus musculus; assay: Inhibition of proliferative retinopathy in mouse model of oxygen-induced retinopathy assessed as reduction in revascularization into the vaso-obliterated area at 50 to 100 pmole injected at P12 and measured at P16; assay type: functional, organism-based
# [13] = Selectivity index, ratio of IC50 for inhibition of PTP1B (unknown origin) by p-nitrophenylphosphate assay to IC50 for inhibition of mouse Eya3 catalytic domain (223 to 510 residues) by p-nitrophenylphosphate assay
# [14] = target: T1, Protein phosphatase EYA2 (Homo sapiens); assay: Inhibition of Eya2 (unknown origin) expressed in human MCF10A cells assessed as reduction in cell migration at 1 uM; assay type: cell-based
# HUVEC [15] = assay: Toxicity in HUVEC assessed as reduction in cell proliferation incubated for 3 days by WST8 assay; assay type: cell-based; design: scale not given: the % may be the effect or the level left; conditions: human, 72 h
# HUVEC [16] = assay: Inhibition of tube formation of HUVEC by matrigel tube-formation assay; assay type: functional, cell-based; conditions: Homo sapiens
# HUVEC [17] = assay: Inhibition of tubulogenesis of HUVEC grown on growth factor-reduced matrigel by inverted microscopy; assay type: functional, cell-based; conditions: Homo sapiens
# HUVEC [18] = assay: Inhibition of tubulogenesis of HUVEC grown on growth factor-reduced matrigel at 2.5 uM by inverted microscopy; assay type: functional; conditions: Homo sapiens
# Mus musculus [19] = species: Mus musculus; assay: Inhibition of post-natal retinal angiogenesis in postnatal mouse assessed as reduction in branch points at 100 uM injected into eyes at P0.5, P3 and P5; assay type: functional, organism-based
# Aorta [20] = assay: Inhibition of sprouting in mouse aorta cultured in collagen gels at 7.5 uM by aortic ring sprouting assay; assay type: functional, tissue-based
# Aorta [21] = assay: Inhibition of branching in mouse aorta cultured in collagen gels assessed as reduction in number of branch-points at 7.5 uM by aortic ring sprouting assay; assay type: functional, tissue-based
# A673 = assay: Antitumor activity against human A673 cells xenografted in nude mouse assessed as inhibition tumor growth at 25 mg/kg/day, ip and measured every other day for 2 weeks; assay type: functional, organism-based
# [22] = target: T3, Protein phosphatase EYA3 (Homo sapiens) (UniProt Q99504); conditions: 50 uM
# T3 sequence (whole entry): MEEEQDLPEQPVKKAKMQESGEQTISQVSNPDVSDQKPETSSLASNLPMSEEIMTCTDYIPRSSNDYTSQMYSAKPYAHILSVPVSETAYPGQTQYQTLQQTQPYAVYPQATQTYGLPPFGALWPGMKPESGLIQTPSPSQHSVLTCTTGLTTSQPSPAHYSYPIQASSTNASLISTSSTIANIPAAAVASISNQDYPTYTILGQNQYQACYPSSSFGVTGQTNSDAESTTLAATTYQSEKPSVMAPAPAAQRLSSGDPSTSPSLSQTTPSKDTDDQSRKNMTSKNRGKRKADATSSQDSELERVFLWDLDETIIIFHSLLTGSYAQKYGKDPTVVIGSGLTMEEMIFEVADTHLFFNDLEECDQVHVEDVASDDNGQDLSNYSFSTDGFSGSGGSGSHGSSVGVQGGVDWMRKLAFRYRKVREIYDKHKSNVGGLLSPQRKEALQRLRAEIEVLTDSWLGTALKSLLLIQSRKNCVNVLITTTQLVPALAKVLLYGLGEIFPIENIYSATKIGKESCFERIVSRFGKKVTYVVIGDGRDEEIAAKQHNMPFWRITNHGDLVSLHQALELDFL
# Description: Inhibition of human Eya3 isoform 2 (127 to 573 residues) interaction with His-tagged SIX2 at 50 uM by Ni-NTA agarose gel based pull down assay
# HUVEC [23] = assay: Inhibition of tube formation of HUVEC assessed as induction of endothelial cells aggregation by matrigel tube-formation assay; assay type: functional, cell-based; conditions: Homo sapiens
# HUVEC [24] = assay: Inhibition of tube formation of HUVEC assessed as induction of reduction in endothelial cells organization after 2 hrs by matrigel tube-formation assay; assay type: functional, cell-based; conditions: Homo sapiens
# HUVEC [25] = assay: Inhibition of tube formation of HUVEC assessed as induction of reduction in endothelial cells organization after 6 hrs by matrigel tube-formation assay; assay type: functional, cell-based; conditions: Homo sapiens
# HUVEC [26] = assay: Inhibition of tube formation of HUVEC assessed as reduction of interconnecting cellular aggregates of endothelial cells after 20 hrs by matrigel tube-formation assay; assay type: functional, cell-based; conditions: Homo sapiens
# HUVEC [27] = assay: Inhibition of tube formation of HUVEC in presence of hight level of fetal bovine serum by matrigel tube-formation assay; assay type: functional, cell-based; conditions: Homo sapiens
SMILES,inhibition [1],inhibition [2] [%],Activity (MCF-10A),inhibition (HUVEC [3]),Activity (HUVEC [4]),inhibition (Aorta [6]),inhibition (Aorta [7]),inhibition (Danio rerio [8]),inhibition (Danio rerio [9]),inhibition (Danio rerio [10]),inhibition (Mus musculus [11]),inhibition (Mus musculus [12]),Activity (HUVEC [15]),inhibition (HUVEC [16]),inhibition (Aorta [20]),inhibition (Aorta [21]),also measured
CCCCc1oc2ccccc2c1C(=O)c1ccc(O)cc1,Dose-dependent effect,< 10,Non-Toxic,Active,Non-Toxic,Dose-dependent effect,Dose-dependent effect,Dose-dependent effect,Dose-dependent effect,inactive,Active,Active,,,,,inhibition (HUVEC [5]): Active
CCc1oc2ccccc2c1C(=O)c1ccc(O)cc1 [BENZARONE],Dose-dependent effect,< 10,Non-Toxic,Active,Non-Toxic,Dose-dependent effect,Dose-dependent effect,Dose-dependent effect,Dose-dependent effect,inactive,Active,Active,Toxic,Active,,,Ratio IC50 [13]: > 100; inhibition [14]: > 50%; inhibition (HUVEC [17]): Dose-dependent effect; inhibition at 2.5 µM (HUVEC [18]): 50%; inhibition (Mus musculus [19]): Active
CCCCc1oc2ccccc2c1C(=O)c1cc(I)c(O)c(I)c1,,,,,,,,,,,,,,inactive,Active,Active,
CCc1oc2ccccc2c1C(=O)c1cc(Br)c(O)c(Br)c1 [BENZBROMARONE],Dose-dependent effect,< 10,Non-Toxic,Active,Non-Toxic,Dose-dependent effect,Dose-dependent effect,Dose-dependent effect,Dose-dependent effect,inactive,Active,Active,Toxic,Active,,,inhibition (HUVEC [5]): Active; TGI (A673): Active; inhibition [22]: inactive
CC(O)c1oc2ccccc2c1C(=O)c1cc(Br)c(O)c(Br)c1 (stereo not given),,,,,,,,,,,,,,,Active,Active,
Cc1oc2ccccc2c1C(=O)c1cc(I)c(O)c(I)c1,,,,,,,,,,,,,,inactive,Active,Active,
Cc1oc2ccccc2c1C(=O)c1ccc(O)c(I)c1,,,,,,,,,,,,,,inactive,Active,Active,
CCc1oc2cc(O)ccc2c1C(=O)c1cc(Br)c(O)c(Br)c1,,,,,,,,,,,,,> 50%,Active,Active,Active,inhibition (HUVEC [23]): Active; inhibition (HUVEC [24]): Active; inhibition (HUVEC [25]): Active; inhibition (HUVEC [26]): Active; inhibition (HUVEC [27]): inactive
CCc1oc2ccc(O)cc2c1C(=O)c1cc(Br)c(O)c(Br)c1,,,,,,,,,,,,,,inactive,Active,Active,
CC(O)CCc1oc2ccccc2c1C(=O)c1cc(I)c(O)c(I)c1 (stereo not given),,,,,,,,,,,,,,inactive,Active,Active,
